Measurements reported in ChEMBL document CHEMBL5154869, “Discovery of 4-((E)-3,5-dimethoxy-2-((E)-2-nitrovinyl)styryl)aniline derivatives as potent and orally active NLRP3 inflammasome inhibitors for colitis” (Eur J Med Chem, 2022).

How the values were obtained:
[1] = Cytotoxicity against human L02 cells assessed as reduction in cell viability incubated for 24 hrs by MTT assay; format: toxicity, cell-based
[2] = biological target: NACHT, LRR and PYD domains-containing protein 3 (Mus musculus) (UniProt Q8R4B8); test: Inhibition of NLRP3 inflammasome activation in LPS-stimulated mouse J774.A1 cells assessed as reduction in pyroptosis at 10 uM pretreated for 4 hrs with LPS and for 30 mins with compound prior to ATP addition and measured after 30 mins by PI/Hoechst33342 staining based analysis; format: cell-based; details: time 60.0 min
NACHT, LRR and PYD domains-containing protein 3 (Mus musculus), sequence (Q8R4B8 whole entry, the tested form may be a part): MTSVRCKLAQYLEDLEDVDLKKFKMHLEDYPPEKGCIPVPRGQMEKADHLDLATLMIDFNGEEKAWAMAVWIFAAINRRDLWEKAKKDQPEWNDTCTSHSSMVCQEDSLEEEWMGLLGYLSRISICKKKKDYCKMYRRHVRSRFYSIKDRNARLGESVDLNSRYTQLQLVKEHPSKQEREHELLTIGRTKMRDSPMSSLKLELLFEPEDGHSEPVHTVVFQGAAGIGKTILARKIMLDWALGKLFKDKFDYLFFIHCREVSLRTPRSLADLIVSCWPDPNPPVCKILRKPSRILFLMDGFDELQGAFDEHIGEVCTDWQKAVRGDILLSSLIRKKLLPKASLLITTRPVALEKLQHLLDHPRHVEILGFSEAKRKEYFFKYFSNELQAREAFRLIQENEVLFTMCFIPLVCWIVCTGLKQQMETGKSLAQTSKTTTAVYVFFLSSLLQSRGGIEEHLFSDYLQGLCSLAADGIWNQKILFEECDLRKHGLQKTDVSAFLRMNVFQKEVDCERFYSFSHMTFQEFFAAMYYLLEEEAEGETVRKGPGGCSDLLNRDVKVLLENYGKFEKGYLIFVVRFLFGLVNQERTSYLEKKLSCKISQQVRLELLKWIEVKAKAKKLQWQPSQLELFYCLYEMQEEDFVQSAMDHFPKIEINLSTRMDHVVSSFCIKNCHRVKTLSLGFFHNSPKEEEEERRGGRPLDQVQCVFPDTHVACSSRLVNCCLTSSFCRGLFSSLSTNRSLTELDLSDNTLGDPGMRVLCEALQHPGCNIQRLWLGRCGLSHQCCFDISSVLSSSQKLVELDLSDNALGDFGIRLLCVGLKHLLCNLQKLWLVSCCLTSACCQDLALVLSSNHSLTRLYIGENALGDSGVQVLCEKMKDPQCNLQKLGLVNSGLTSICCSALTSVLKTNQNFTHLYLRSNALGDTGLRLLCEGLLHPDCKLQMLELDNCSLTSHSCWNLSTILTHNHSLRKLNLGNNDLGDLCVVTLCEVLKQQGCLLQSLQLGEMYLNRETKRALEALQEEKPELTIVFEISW

[3] = biological target: NACHT, LRR and PYD domains-containing protein 3 (Mus musculus, UniProt Q8R4B8); test: Inhibition of NLRP3 inflammasome activation in LPS/nigericin-treated C57BL/6 mouse bone marrow-derived macrophages assessed as reduction in IL-1beta secretion preincubated for 3 hrs with LPS and for 30 mins with compound prior to nigericin addition and measured after 30 mins by ELISA; format: cell-based, BMDM
NACHT, LRR and PYD domains-containing protein 3, sequence (Q8R4B8 whole entry, the tested form may be a part): as above

[4] = Metabolic stability in human liver microsomes assessed as intrinsic clearance by LC-MS/MS analysis; format: ADME, Microsome; details: read-out: CLH
[5] = Metabolic stability in human hepatocytes assessed as intrinsic clearance by LC-MS/MS analysis; format: ADME, cell-based, Hepatocyte; details: read-out: CLH
[6] = Metabolic stability in human liver microsomes assessed as half life by LC-MS/MS analysis; format: ADME, Microsome

Structure (SMILES) | IC50 at 24 h [1] [µM] | inhibition [2] [%] | IC50 [3] [µM] | microsomal CLint [4] [µL/min/mg] | CLint scaled [5] [mL/min/kg] | half-life [6] [min]
COc1cc(/C=C/c2ccc(NC(=O)COc3ccccc3)cc2)c(/C=C/[N+](=O)[O-])c(OC)c1 | > 100 | 7.5 | – | – | – | –
COc1cc(/C=C/c2ccc(NC(=O)C3CCCO3)cc2)c(/C=C/[N+](=O)[O-])c(OC)c1 (centres undefined) | > 100 | 65.2 | – | – | – | –
COc1cc(/C=C/c2ccc(NC(=O)c3ccc(F)cc3)cc2)c(/C=C/[N+](=O)[O-])c(OC)c1 | > 100 | 44 | 9.34 | – | – | –
COc1cc(/C=C/c2ccc(NC(=O)c3ccc4ccccc4c3)cc2)c(/C=C/[N+](=O)[O-])c(OC)c1 | 131 | 57.2 | > 10 | – | – | –
COc1cccc(C(=O)Nc2ccc(/C=C/c3cc(OC)cc(OC)c3/C=C/[N+](=O)[O-])cc2)c1 | > 100 | 24 | – | – | – | –
COc1cc(/C=C/c2ccc(NC(=O)c3ccccc3C)cc2)c(/C=C/[N+](=O)[O-])c(OC)c1 | > 100 | 39 | – | – | – | –
COc1cc(/C=C/c2ccc(NC(=O)c3ccccc3OC)cc2)c(/C=C/[N+](=O)[O-])c(OC)c1 | > 100 | 31 | – | – | – | –
COc1cc(/C=C/c2ccc(NC(=O)c3cc4ccccc4o3)cc2)c(/C=C/[N+](=O)[O-])c(OC)c1 | > 100 | 6.47 | – | – | – | –
CCc1ccc(C(=O)Nc2ccc(/C=C/c3cc(OC)cc(OC)c3/C=C/[N+](=O)[O-])cc2)cc1 | > 100 | 39 | – | – | – | –
COc1cc(/C=C/c2ccc(NC(=O)c3ccc(C)cc3)cc2)c(/C=C/[N+](=O)[O-])c(OC)c1 | > 100 | 28.6 | – | – | – | –
CCOc1ccc(C(=O)Nc2ccc(/C=C/c3cc(OC)cc(OC)c3/C=C/[N+](=O)[O-])cc2)cc1 | > 100 | 39.9 | – | – | – | –
COc1cc(/C=C/c2ccc(NC(=O)c3ccccc3F)cc2)c(/C=C/[N+](=O)[O-])c(OC)c1 | > 100 | 38.9 | – | – | – | –
COc1cc(/C=C/c2ccc(NC(=O)c3cccs3)cc2)c(/C=C/[N+](=O)[O-])c(OC)c1 | > 100 | 66 | 2.15 | – | – | –
COc1cc(/C=C/c2ccc(NC(=O)c3cccc(Cl)c3)cc2)c(/C=C/[N+](=O)[O-])c(OC)c1 | > 100 | 24 | – | – | – | –
COc1cc(/C=C/c2ccc(NC(=O)c3cccc(C)c3)cc2)c(/C=C/[N+](=O)[O-])c(OC)c1 | > 100 | 39.9 | – | – | – | –
C=C1C(=O)[C@]23[C@H](O)[C@H]1CC[C@H]2[C@@]12CO[C@]3(O)[C@@H](O)[C@@H]1C(C)(C)CC[C@@H]2O [ORIDONIN] | 42.2 | 73.8 | – | – | – | –
COc1cc(/C=C/c2ccc(NC(=O)c3cccc(Br)c3)cc2)c(/C=C/[N+](=O)[O-])c(OC)c1 | > 100 | 20.1 | – | – | – | –

Structure (SMILES) | IC50 at 24 h [1] [µM] | inhibition [2] [%] | IC50 [3] [µM] | microsomal CLint [4] [µL/min/mg] | CLint scaled [5] [mL/min/kg] | half-life [6] [min]
COc1cc(/C=C/c2ccc(NC(=O)/C=C/c3ccccc3)cc2)c(/C=C/[N+](=O)[O-])c(OC)c1 | > 100 | 30.7 | > 10 | – | – | –
COc1cc(/C=C/c2ccc(NC(=O)C(C)(C)C)cc2)c(/C=C/[N+](=O)[O-])c(OC)c1 | > 100 | 52.7 | – | – | – | –
COc1cc(/C=C/c2ccc(NC(=O)c3ccccn3)cc2)c(/C=C/[N+](=O)[O-])c(OC)c1 | > 100 | 60 | – | – | – | –
COc1cc(/C=C/c2ccc(NC(=O)c3ccc(Br)cc3)cc2)c(/C=C/[N+](=O)[O-])c(OC)c1 | > 100 | 46.2 | – | – | – | –
COc1cc(/C=C/c2ccc(NC(=O)c3ccc(I)cc3)cc2)c(/C=C/[N+](=O)[O-])c(OC)c1 | > 100 | 30.7 | – | – | – | –
COc1cc(/C=C/c2ccc(NC(=O)c3ccc(Cl)cc3)cc2)c(/C=C/[N+](=O)[O-])c(OC)c1 | > 100 | 50 | – | – | – | –
COc1cc(/C=C/c2ccc(NC(=O)c3ccc(C)o3)cc2)c(/C=C/[N+](=O)[O-])c(OC)c1 | > 100 | 69.5 | – | – | – | –
COc1cc(/C=C/c2ccc(NC(=O)c3ccccc3Cl)cc2)c(/C=C/[N+](=O)[O-])c(OC)c1 | > 100 | 28.9 | – | – | – | –
COc1cc(/C=C/c2ccc(NC(=O)c3cccc4ccccc34)cc2)c(/C=C/[N+](=O)[O-])c(OC)c1 | > 100 | 4.62 | – | – | – | –
COc1cc(/C=C/c2ccc(NC(=O)c3ccoc3)cc2)c(/C=C/[N+](=O)[O-])c(OC)c1 | > 100 | 64.2 | – | – | – | –
COc1cc(/C=C/c2ccc(NC(=O)c3ccccc3Br)cc2)c(/C=C/[N+](=O)[O-])c(OC)c1 | > 100 | 36 | > 10 | – | – | –
O=[N+]([O-])/C=C/c1ccc2c(c1)OCO2 | 39.2 | 75.1 | – | – | – | –
COc1cc(/C=C/c2ccc(NC(=O)c3cccc(F)c3)cc2)c(/C=C/[N+](=O)[O-])c(OC)c1 | > 100 | 39.9 | – | – | – | –
COc1cc(/C=C/c2ccc(NC(=O)C3CC3)cc2)c(/C=C/[N+](=O)[O-])c(OC)c1 | – | – | – | 23.2 | 11.7 | 59.7
COc1ccc(C(=O)Nc2ccc(/C=C/c3cc(OC)cc(OC)c3/C=C/[N+](=O)[O-])cc2)cc1 | > 100 | 41 | > 10 | – | – | –
COc1cc(/C=C/c2ccc(NC(=O)c3ccccc3)cc2)c(/C=C/[N+](=O)[O-])c(OC)c1 | > 100 | 72.2 | 1.56 | – | – | –
